Test results reported in PubChem BioAssay (NCI).
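Abbreviation: GI50, concentration required for 50% inhibition of growth. TGI denotes the concentration required for complete inhibition of growth.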

Tests used:
Assay in all cases: inhibition of tumour cell growth, NCI panel, 384-well format
RXF 393 renal = tested on: RXF 393 renal
A498 renal = tested on: A498 renal
NCI-H522 lung = tested on: NCI-H522 lung
EKVX NSCLC = tested on: EKVX NSCLC
NCI-H460 NSCLC = tested on: NCI-H460 NSCLC
HT29 colon = tested on: HT29 colon
U251 glioblastoma = tested on: U251 glioblastoma
DU-145 prostate = tested on: DU-145 prostate
LOX IMVI melanoma = tested on: LOX IMVI melanoma
NCI-H23 lung = tested on: NCI-H23 lung
CAKI-1 renal = tested on: CAKI-1 renal
BT-549 breast = tested on: BT-549 breast
SF-539 CNS = tested on: SF-539 CNS

`Cc1cc(C)c(CNC(=O)c2cc(-c3ccc(CN4CCOCC4)cc3)cc3c2cnn3C2CCCC2)c(=O)[nH]1` was tested. Which GI50 (RXF 393 renal) did it give?
The GI50 was 5.49 µM.

And the TGI (RXF 393 renal)?
The TGI was 15.8 µM.

What about the GI50 (A498 renal) of the same molecule?
Its GI50 is 3.92 µM.

What about the TGI (A498 renal) of the same molecule?
Its TGI is 15.4 µM.

And the GI50 (NCI-H522 lung)?
Its GI50 is 15.3 µM.

What about the TGI (NCI-H522 lung) of the same molecule?
Its TGI is 28.7 µM.

And the GI50 (EKVX NSCLC)?
The GI50 was 3.41 µM.

What about the TGI (EKVX NSCLC) of the same molecule?
The TGI was 21.6 µM.

What about the GI50 (NCI-H460 NSCLC) of the same molecule?
The GI50 was 7.72 µM.

What about the TGI (NCI-H460 NSCLC) of the same molecule?
Its TGI is 20.5 µM.

What about the GI50 (HT29 colon) of the same molecule?
Its GI50 is 2.3 µM.

And the TGI (HT29 colon)?
Its TGI is 5.14 µM.

And the GI50 (U251 glioblastoma)?
The GI50 was 7.69 µM.

What about the TGI (U251 glioblastoma) of the same molecule?
Its TGI is 20.2 µM.

And the GI50 (DU-145 prostate)?
Its GI50 is 13.5 µM.

What about the TGI (DU-145 prostate) of the same molecule?
Its TGI is 27.6 µM.

What about the GI50 (LOX IMVI melanoma) of the same molecule?
The GI50 was 7.45 µM.

What about the TGI (LOX IMVI melanoma) of the same molecule?
The TGI was 20.7 µM.

What about the GI50 (NCI-H23 lung) of the same molecule?
The GI50 was 14.3 µM.

And the TGI (NCI-H23 lung)?
Its TGI is 27.5 µM.

What about the GI50 (CAKI-1 renal) of the same molecule?
Its GI50 is 9.04 µM.

What about the TGI (CAKI-1 renal) of the same molecule?
The TGI was 22.2 µM.

What about the GI50 (BT-549 breast) of the same molecule?
The GI50 was 8.98 µM.

And the TGI (BT-549 breast)?
Its TGI is 22.1 µM.

And the GI50 (SF-539 CNS)?
The GI50 was 6.86 µM.

What about the TGI (SF-539 CNS) of the same molecule?
The TGI was 19.8 µM.
